# Patent US10206894B2, “Compounds for use in treatment of mucositis” (priority 2011, dated 2019)
# Like-named read-outs stand apart in the source and are kept apart here.
# How the values were obtained:
# [1] = test system: fractionated radiation and cisplatin induced oral mucositis, left buccal cheek pouch; type: in vivo; conditions: for peak mean mucositis score: peak on Day 19
# Description: Seventy (70) male Syrian Golden Hamsters were used in this example. Mucositis was induced using a combination of fractionated radiation and cisplatin. Cisplatin was administered on Days 0 and 6 at a dose of 5 mg/kg by i.p. injection. Each hamster was administered a total radiation dose of 60 Gy directed to their left buccal cheek pouch split into eight equal fractions of 7.5 Gy provided on Days 0, 1, 2, 3, 6, 7, 8 and 9. Radiation was generated with a 160 kilovolt potential (15-ma) source at a focal distance of 50 cm, hardened with a 0.35 mm Cu filtration system. Irradiation targeted the left buccal pouch mucosa at a rate of 2.0 Gy/minute. Prior to irradiation, animals were anesthetized with an i.p. injection of ketamine (160 mg/mL) and xylazine (8 mg/mL). The left buccal pouch was everted, fixed and isolated using a lead shield. Test materials were administered topically to the left cheek pouch three times daily, as detailed in Table 3 at a dose of 3 mg/mL in a volume of 0.5 mL per dose, either on the days of radiation (Days 0-3, 6-9), the days on which radiation was not administered (−1, 4, 5 and 10), Days 0-12 or Days 0-35. Mucositis in the left cheek pouch was evaluated clinically starting on Day 7, and continuing on alternate days until Day 35. On Day 35, all animals were euthanized by CO2 inhalation and death was confirmed by monitoring heartbeat in accordance with USDA guidelines.
# The mucositis score, weight change and survival were measured throughout the study. For the evaluation of mucositis, the animals were anesthetized with an inhalation anesthetic, and the left pouch everted. Mucositis was scored visually by comparison to a validated photographic scale, ranging from 0 for normal, to 5 for severe ulceration (as described above in Example 2). A score of 1-2 is considered to represent a mild stage of the disease, whereas a score of 3-5 is considered to indicate moderate to severe mucositis. Following visual scoring, a digital image was taken of each animal's mucosa using a standardized technique. At the conclusion of the experiment, images were randomly numbered and scored by two independent trained observers graded the photographs in blinded fashion using the above-described scale (blinded scoring).
# The grade of mucositis was scored, beginning on day 7, and for every second day thereafter, through and including day 35, The effect on mucositis of each drug treatment compared to placebo was assessed according to the following parameters: the difference in the number of days hamsters in each group had ulcerative (score ≥3) mucositis and the rank sum differences in daily mucositis scores.
# On each evaluation day, the number of animals with a blinded mucositis score of ≥3 in each drug treatment group was compared to the control group. Differences were compared on a cumulative basis and statistical significance was determined by chi-square analysis. Efficacy, in this analysis, is defined by a significant reduction in the number of days that a group of animals had ulcerations (scores ≥3) when compared to the control group.
# For each evaluation day the scores of the control group were compared to those of the treated groups using non-parametric rank sum analysis. Treatment success was considered as a statistically significant lowering of scores in the treated group on 2 or more days from day 6 to day 28.
# All animals were weighed daily and their survival recorded to assess possible differences in animal weight among treatment groups as an indication for mucositis severity and/or possible toxicity resulting from the treatments. No deaths were observed during this study.
# An analysis of the severity of mucositis was performed using the Mann-Whitney rank sum analysis to compare the scores for each treatment group to the controls on each day of the analysis. In this analysis, 2 days of significant reduction in the mucositis score are generally required before it is regarded as meaningful.
# [2] = test system: FaDu human head and neck cancer xenograft; experiment: Tumor growth and response to therapy in FaDu xenograft; type: in vivo, nude mice (nu/nu); conditions: for mice euthanized for tumor volume in excess of 1500 mm^3: vehicle groups 43.3%; for survival at Day 29: vehicle groups 26.7%; for mice euthanized for tumor ulceration: vehicle groups 30%
# Description: Ninety (90) male nude mice (nu/nu) were divided into nine (9) groups of ten […]) mice per group. To ensure that a sufficient number of tumor-bearing animals were available for this study, a total of 100 mice were inoculated s.c. in the flank with 1×10^6 FaDu cells. FaDu (HTB-43) human head and neck cancer cells were obtained from ATCC. These cells were grown in EMEM medium supplemented with 10% Fetal Calf Serum (FCS), 1% penicillin and streptomycin, and 2 mM L-Glutamine. […] The flask was incubated at 37° C. until cells detached. Cells were then sub-cultured at a ratio of 1:3. […] Tumors were measured once every two days with micro-calipers, and tumor volume was calculated as (length×width×width)/2. Where animals were euthanized for tumor volume exceeding the maximum permissible by IACUC rules (1500 mm^3) or tumor ulceration, the last measurement was carried forward in calculations of mean tumor volume.
# All animals were weighed every day and their survival recorded, to assess possible differences in animal weight among treatment groups as an indication of possible toxicity resulting from the treatments. […] Any animals whose tumor grew to over 1500 mm^3 were also euthanized.
# Further analysis of the tumor volume data was performed by calculating the mean area under the curve (AUC) for the tumor volume for each animal and comparing the groups using an ANOVA on ranks test. Due to the impact of animals euthanized for tumor ulceration or volume in excess of 1500 mm^3, this analysis was performed on data to Day 15 as well as on the full data set to Day 29.
smiles,measurement,setting,value
N=C(N)NCCCCC(=O)Nc1cc(C(F)(F)F)cc(NC(=O)c2cc(C(=O)Nc3cc(C(F)(F)F)cc(NC(=O)CCCCNC(=N)N)c3OC3CCNC3)ncn2)c1OC1CCNC1 (centres unmarked) [Compound X],mucositis scores vs saline control group (Mann-Whitney rank sum),"[1]; 3 mg/mL tid Day 0 until Day 35, Days 11 (p=0.002), 13 (p=0.023), 15-35 (p<0.001)",statistically significant reductions
same,mucositis scores vs Kleptose control group (Mann-Whitney rank sum),"[1]; 3 mg/mL tid Day 0 until Day 35, Days 17-35 (p<0.001 for all days)",statistically significant reductions
same,peak mean mucositis score,"[1]; 3 mg/rid (in Kleptose vehicle), dosed Days 0-3 and 6-9",3.1
same,% reduction of animal days with OM scores ≥ 3,[1]; Fractionated Radiation,92.6%
same,percentage of hamsters in which an ulcer formed during the study,"[1]; dosed Day 0 to Day 35, 100% in saline and vehicle controls",10%
same,ulceration rate,"[1]; dosed Days 0-3 and 6-9, on Day 17, continued until Day 29",100%
same,percentage of animal days with a score of 3 or higher,"[1]; dosed Days 0-3 and 6-9, saline control 54.7%",58.0%
same,maximum mean mucositis score,"[1]; dosed Days 0-12, maximum on Days 19, 21 and 23",3.1
same,ulceration rate,"[1]; dosed Days 0-12, on Day 17, continued until Day 27",100%
same,percentage of animal days with a score of 3 or higher,"[1]; dosed Days 0-12, saline control 54.7%",58.0%
same,maximum mean mucositis score,"[1]; dosed Days 0-35, maximum on Days 19 and 21",2.1
same,ulceration rate,"[1]; dosed Days 0-35, on Days 15-23 (single hamster)",10%
same,percentage of animal days with a score of 3 or higher (incidence of ulcerative oral mucositis),"[1]; dosed Days 0-35, saline control 54.7%, Kleptose vehicle 56.0%, p<0.001",3.3%
same,ulceration rate,"[1]; dosed Days −1, 4, 5, and 10, on Day 19 only",100%
same,peak mean mucositis score,"[1]; dosed Days −1, 4, 5, and 10",3.1
same,percentage of animal days with a score of 3 or higher,"[1]; dosed Days −1, 4, 5, and 10, saline control 54.7%",48.0%
same,mucositis scores vs control (Mann-Whitney rank sum),"[1]; dosed Days −1, 4, 5 and 10, Days 21 (p=0.018), 23, 25 (p=0.040), 33, 35 (p=0.036)",statistically significant reductions
same,daily mean mucositis scores and number of days animals exhibited ulceration,"[1]; fractionated radiation model, oral rinse 3 times daily, 35 day treatment regimen",significantly reduced
same,"adverse findings in weight gain, general behavior in the home cage, or clinical signs","[1]; hamster, in vivo",no adverse findings
same,adverse reaction to treatment,"[1]; hamster, in vivo",no evidence of any adverse reaction
same,mean tumor volume,"[2]; 0.06 mg/kg, Day 1",102 mm^3
same,mean tumor volume,"[2]; 0.06 mg/kg, Day 15",904 mm^3
same,mean tumor volume,"[2]; 0.06 mg/kg, Day 27 when final animal in group was euthanized",2234 mm^3
same,mean tumor volume,"[2]; 0.3 mg/kg, Day 1",96 mm^3
same,mean tumor volume,"[2]; 0.3 mg/kg, Day 15",869 mm^3
same,mean tumor volume,"[2]; 0.3 mg/kg, end of the study",1002 mm^3
same,mean tumor volume,"[2]; cisplatin plus Compound X 0.06 mg/kg, Day 1",100 mm^3
same,mean tumor volume,"[2]; cisplatin plus Compound X 0.06 mg/kg, Day 15",518 mm^3
same,mean tumor volume,"[2]; cisplatin plus Compound X 0.06 mg/kg, end of the study",338 mm^3
same,mean tumor volume,"[2]; cisplatin plus Compound X 0.3 mg/kg, Day 1",104 mm^3
same,mean tumor volume,"[2]; cisplatin plus Compound X 0.3 mg/kg, Day 15",564 mm^3
same,mean tumor volume,"[2]; cisplatin plus Compound X 0.3 mg/kg, end of the study",510 mm^3
same,"p, tumor volume AUC to Day 15 vs vehicle control group (ANOVA on ranks)",[2]; cisplatin plus Compound X at 0.06 mg/kg,0.001
same,"p, tumor volume AUC to Day 15 vs vehicle control group (ANOVA on ranks)",[2]; cisplatin plus Compound X at 0.3 mg/kg,0.002
same,mice euthanized for tumor volume in excess of 1500 mm^3,"[2]; groups treated with 0.06 mg/kg IP QD Days 0-28 (alone, with radiation or cisplatin)",46.7%
same,survival at Day 29,[2]; groups treated with 0.06 mg/kg,20%
same,mice euthanized for tumor ulceration,[2]; groups treated with 0.06 mg/kg,33.3%
same,mice euthanized for tumor volume in excess of 1500 mm^3,"[2]; groups treated with 0.3 mg/kg IP QD Days 0-28 (alone, with radiation or cisplatin)",40%
same,survival at Day 29,[2]; groups treated with 0.3 mg/kg,36.7%
same,mice euthanized for tumor ulceration,[2]; groups treated with 0.3 mg/kg,23.3%
same,mean tumor volume,"[2]; radiation plus 0.06 mg/kg, Day 1",96 mm^3
same,mean tumor volume,"[2]; radiation plus 0.06 mg/kg, Day 15",596 mm^3
same,mean tumor volume,"[2]; radiation plus 0.06 mg/kg, end of the study",1027 mm^3
same,mean tumor volume,"[2]; radiation plus 0.3 mg/kg, Day 1",108 mm^3
same,mean tumor volume,"[2]; radiation plus 0.3 mg/kg, Day 15",616 mm^3
same,mean tumor volume,"[2]; radiation plus 0.3 mg/kg, end of the study",1376 mm^3
same,"p, tumor volume AUC to Day 15 vs vehicle control group (ANOVA on ranks)",[2]; radiation plus Compound X at 0.3 mg/kg,0.017
